According to US10987059B2, “Electronic scaffold and uses thereof” (Ramot at Tel-Aviv University Ltd., priority 2013, dated 2021):

Legend:
[1] = test system: neonatal rat ventricular cardiomyocytes; test: Action potentials recorded from the engineered (cyborg) tissue before and after adding a stimulating drug; assay type: cell-based; settings: 100 nM in growth medium, 15 minutes incubation; single electrode; device with albumin fibrous scaffold; before vs after drug
Method: After the device was incubated for a time period that allows tissue generation, the obtained cyborg tissue was connected to the pre-amplifier and monitored through the computer, using a system as exemplified in FIG. 8. This allows monitoring the progress of tissue formation as well as studying the influence of different conditions and substances on the tissue, an approach that could replace animal drug testing and make it easier and simpler.
At the time of the recording, the device was connected to a ME64-FAI-MPA-System by multichannel systems (Germany). Action potentials were recorded using the MC rack software which allows recording over multiple electrodes simultaneously.
After action potentials were recorded, 100 nM of noradrenaline was added to the growth medium and the device was allowed to incubate for 15 minutes after which the device was reconnected and action potentials were again recorded.

[2] = Release profile of SSA from polypyrrole hydrogel scaffold upon voltage application; assay type: physicochemical; settings: absorbance at 280 nm
Method: Pyrrole was […] in a 10-mL one-compartment cell, using an electrochemical workstation under computer control. The gold-based microelectrodes, prepared as described in Example 1 hereinabove, were used as working electrodes. The counter electrode was platinum wire and the reference electrode was a saturated calomel electrode (SCE). The electrolyte was an aqueous solution (100 ml) containing 0.2 M pyrrole (1.39 ml) and 0.2 M sulfosalicylic acid (5.08 grams), which was degassed by nitrogen stream before polymerization was effected. The SSA-doped PPy films (PPy-SSA) were prepared on the gold microelectrodes by galvanostatic polymerization using a current density of 2.5 mA/cm^2 for 800 seconds. The as-prepared PPy-SSA films were rinsed with de-ionized water and dried in air at room temperature. A second layer was thereafter deposited by using an aqueous solution (100 ml) of 0.2 M pyrrole and 0.1 M NaCl (0.5844 grams), subjected to a galvanostatic polymerization with a current density of 2 mA/cm^2 for 500 seconds.

[3] = poly(2-acrylamido-2-methylpropane sulfonic acid-co-n-butylmethacrylate) scaffold; PBS medium; optical density at 462
Method: The release profile of dopamine from device polymeric element made of a positive electro-responsive polymer as described herein was measured as follows:
Disc shaped preloaded slices of formed hydrogel (2-3 mm) were placed between two Graphite electrodes (1 cm apart) in a plastic culture plate. The electrodes were connected to a stimulus generator (STG-4002 multichannel systems, Germany), and the plate was filled with a medium of PBS (0.35 ml). A DC pulse of different intensities (0-8 volt) and different durations (0-15 minutes) was supplied.
Nano-Drop spectrophotometer (ND-1000 spectrophotometer, Thermo scientific, Wilmington Del. U.S.A) at a wave length of 462 was used to examine the light absorbance of the medium. The relation between the light absorbance and the concentration is given by Beer-Lambert as a linear equation: A=εlc
wherein A is the light absorbance, l is the length of the light through the sample [m], C is the concentration in [M], and ε is the molar absorptivity [m^−1M^−1].

SMILES: NC[C@H](O)c1ccc(O)c(O)c1 [Noradrenalin]
- frequency of the action potentials [1]: increased

SMILES: O=C(O)c1cc(S(=O)(=O)O)ccc1O [SSA, Sulfosalicylic acid]
- drug release, voltage on vs off [2]: When voltage is applied the drug is released into the polymer's vicinity and when voltage application is discontinued drug release ceases

SMILES: NCCc1ccc(O)c(O)c1 [dopamine]
- drug release rate, voltage on vs off [3]: much higher drug release rate when voltage is applied (on) than when it is not applied (off)
